This is an account of results in PubChem BioAssay AID192 (DTP/NCI, 2004).

Molecules are shown by their SMILES. Where “and” joins values, the source holds several entries; their conditions need not be identical. Equal values may be shown once. Toxic doses and inconclusive results are not listed.

In this experiment the test system is BDF1 mice, B16 melanoma ip, median survival T/C. The experiment can be described thus: NCI In Vivo Anticancer Drug Screen. Data for tumor model B16 Melanoma (intraperitoneal) in B6D2F1 (BDF1) mice. The note with it: endpoint: median survival time, higher = longer survival. A digest of the protocol: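 Transplantable tumor model; survival or tumor size measured; reported as T/C, treated over vehicle control.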

Where [1] appears, read: dose: 25.0 mg/kg/injection, schedule: Q01DX009 (ip), vehicle: saline.
Where [2] appears, read: dose: 50.0 mg/kg/injection, schedule: Q01DX009 (ip), vehicle: saline.
Where [3] appears, read: dose: 12.5 mg/kg/injection, schedule: Q01DX009 (ip), vehicle: saline with Tween-80.
[4] abbreviates: dose: 25.0 mg/kg/injection, schedule: Q01DX009 (ip), vehicle: saline with Tween-80.
The mark [5] stands for this setting: dose: 12.5 mg/kg/injection, schedule: Q01DX009 (ip), vehicle: saline.
The mark [6] stands for this setting: dose: 100.0 mg/kg/injection, schedule: Q01DX009 (ip), vehicle: saline.
[7] abbreviates: dose: 50.0 mg/kg/injection, schedule: Q01DX009 (ip), vehicle: Klucel (hydroxypropylcellulose) (HPC).
[8] abbreviates: dose: 100.0 mg/kg/injection, schedule: Q01DX009 (ip), vehicle: Klucel (hydroxypropylcellulose) (HPC).
The mark [9] stands for this setting: dose: 12.5 mg/kg/injection, schedule: Q01DX009 (ip), vehicle: Klucel (hydroxypropylcellulose) (HPC).
The mark [10] stands for this setting: dose: 25.0 mg/kg/injection, schedule: Q01DX009 (ip), vehicle: Klucel (hydroxypropylcellulose) (HPC).

With `CCOCCc1ccccn1`, the T/C by setting is: (dose: 12.5 mg/kg/injection, schedule: Q04DX003 (ip), vehicle: saline) 106 % of control; (dose: 25.0 mg/kg/injection, schedule: Q04DX003 (ip), vehicle: saline) 100 % of control; (dose: 50.0 mg/kg/injection, schedule: Q04DX003 (ip), vehicle: saline) 96 % of control.

As for `COCCCN1CCN(c2ccccc2OC)CC1`, the T/C is 101 % of control under setting [1] and 92 % of control under setting [2].

With `CC(C)(C)CC(C)(C)CC(C)(C)NCCCN`, the T/C by setting is: (dose: 6.25 mg/kg/injection, schedule: Q01DX009 (ip), vehicle: saline with Tween-80) 105 % of control; under setting [3], 91 % of control; under setting [4], 86 % of control.

For the compound `CCCCS(=O)CC(CO)NC(=O)/C=C/c1c(C)[nH]c(=O)[nH]c1=O` (centres undefined), the T/C by setting is: (dose: 0.63 mg/kg/injection, schedule: Q01DX009 (ip), vehicle: water) 104 % of control; (dose: 1.25 mg/kg/injection, schedule: Q01DX009 (ip), vehicle: water) 102 % of control; (dose: 2.5 mg/kg/injection, schedule: Q01DX009 (ip), vehicle: water) 104 % of control; (dose: 5.0 mg/kg/injection, schedule: Q01DX009 (ip), vehicle: water) 99 % of control; (dose: 10.0 mg/kg/injection, schedule: Q01DX009 (ip), vehicle: water) 95 % of control.

With `c1ccc(CC[P+](c2ccccc2)(c2ccccc2)c2ccccc2)cc1`, the T/C was 92 % of control (dose: 0.78 mg/kg/injection, schedule: Q01DX009 (ip), vehicle: Klucel (hydroxypropylcellulose) (HPC)); 103 % of control (dose: 1.56 mg/kg/injection, schedule: Q01DX009 (ip), vehicle: Klucel (hydroxypropylcellulose) (HPC)); 92 % of control (dose: 3.13 mg/kg/injection, schedule: Q01DX009 (ip), vehicle: Klucel (hydroxypropylcellulose) (HPC)).

On to `CCOC(=O)NC(C)(C)CN(CCO)C(=O)OCC`, for which the T/C reads like this: (dose: 100.0 mg/kg/injection, schedule: Q04DX003 (ip), vehicle: Klucel (hydroxypropylcellulose) (HPC)) 102 % of control; (dose: 400.0 mg/kg/injection, schedule: Q04DX003 (ip), vehicle: Klucel (hydroxypropylcellulose) (HPC)) 100 % of control.

Regarding `O=C1C=CC(=O)N1c1ccc(Cl)cc1`, the T/C (dose: 1.25 mg/kg/injection, schedule: Q01DX009 (ip), vehicle: Klucel (hydroxypropylcellulose) (HPC)) is 97 % of control.

With `OCCOCCOCCN1CCN(C(c2ccccc2)c2ccc(Cl)cc2)CC1` (centres undefined), the T/C under setting [5] is 108 % of control, the T/C under setting [1] is 110 % of control, the T/C under setting [2] was 86 % of control and the T/C under setting [6] was 86 % of control.

For `O=C(O)CP(=O)(O)O`, the T/C is 109 % of control (dose: 4.0 mg/kg/injection, schedule: Q01DX009 (ip), vehicle: saline); 104 % of control (dose: 8.0 mg/kg/injection, schedule: Q01DX009 (ip), vehicle: saline); 102 % of control (dose: 16.0 mg/kg/injection, schedule: Q01DX009 (ip), vehicle: saline); 101 % of control (dose: 32.0 mg/kg/injection, schedule: Q01DX009 (ip), vehicle: saline); 103 % of control under setting [2]; 102 % of control (dose: 64.0 mg/kg/injection, schedule: Q01DX009 (ip), vehicle: saline). Also, the T/C is, setting by setting: under setting [6], 120 % of control; (dose: 200.0 mg/kg/injection, schedule: Q01DX009 (ip), vehicle: saline) 154 % of control; (dose: 400.0 mg/kg/injection, schedule: Q01DX009 (ip), vehicle: saline) 194 % of control; (dose: 800.0 mg/kg/injection, schedule: Q01DX009 (ip), vehicle: saline) 211 % of control.

Turning to `COc1cc(C2=NCCc3cc4c(cc32)OCO4)cc(OC)c1OC`, the T/C under setting [5] was 112 % of control, the T/C under setting [1] is 118 % of control, the T/C under setting [2] is 104 % of control and the T/C under setting [6] is 101 % of control.

Consider `CSc1nc(=O)[nH]nc1SCc1ccccc1`, for which the T/C was 98 % of control under setting [7]; 105 % of control under setting [8]; 98 % of control (dose: 200.0 mg/kg/injection, schedule: Q01DX009 (ip), vehicle: Klucel (hydroxypropylcellulose) (HPC)); 110 % of control (dose: 400.0 mg/kg/injection, schedule: Q01DX009 (ip), vehicle: Klucel (hydroxypropylcellulose) (HPC)).

For `C=C(C)C(=O)OC1C/C(CO)=C\C(O)C/C(C)=C/C2OC(=O)C(=C)C21` (centres undefined), the T/C (dose: 1.25 mg/kg/injection, schedule: Q01DX009 (ip), vehicle: saline + alcohol) is 110 % of control; the T/C (dose: 2.5 mg/kg/injection, schedule: Q01DX009 (ip), vehicle: saline + alcohol) is 90 % of control; the T/C (dose: 5.0 mg/kg/injection, schedule: Q01DX009 (ip), vehicle: saline + alcohol) was 92 % of control; the T/C (dose: 10.0 mg/kg/injection, schedule: Q01DX009 (ip), vehicle: saline + alcohol) is 100 % of control; the T/C (dose: 20.0 mg/kg/injection, schedule: Q01DX009 (ip), vehicle: saline + alcohol) was 91 % of control; the T/C (dose: 40.0 mg/kg/injection, schedule: Q01DX009 (ip), vehicle: saline + alcohol) is 95 % of control.

Regarding `CC(=O)NNC(=O)c1ccccc1`, the T/C (dose: 12.5 mg/kg/injection, schedule: Q#A X018 (ip), vehicle: water) is 93 % of control; the T/C (dose: 25.0 mg/kg/injection, schedule: Q#A X018 (ip), vehicle: water) is 93 % of control; the T/C (dose: 50.0 mg/kg/injection, schedule: Q#A X018 (ip), vehicle: water) was 106 % of control.

As for `CCCC1=NNc2n[nH]c(=S)n2N1`, the T/C by setting is: under setting [9], 106 % of control; under setting [10], 112 % of control; under setting [7], 87 % of control.

As to `COc1cc2c(cc1OC)C1CNC(=O)C1C(c1ccccc1)C2` (centres undefined), the T/C is 91 % of control (dose: 2.5 mg/kg/injection, schedule: Q01DX009 (ip), vehicle: Klucel (hydroxypropylcellulose) (HPC)); 91 % of control (dose: 3.75 mg/kg/injection, schedule: Q01DX009 (ip), vehicle: Klucel (hydroxypropylcellulose) (HPC)); 98 % of control (dose: 5.0 mg/kg/injection, schedule: Q01DX009 (ip), vehicle: Klucel (hydroxypropylcellulose) (HPC)); 97 % of control (dose: 7.5 mg/kg/injection, schedule: Q01DX009 (ip), vehicle: Klucel (hydroxypropylcellulose) (HPC)); 94 % of control (dose: 10.0 mg/kg/injection, schedule: Q01DX009 (ip), vehicle: Klucel (hydroxypropylcellulose) (HPC)); 92 % of control (dose: 15.0 mg/kg/injection, schedule: Q01DX009 (ip), vehicle: Klucel (hydroxypropylcellulose) (HPC)).

With `N#CC(Nc1ccccc1)c1ccccc1` (centres undefined), the T/C reads like this: under setting [7], 100 % of control; under setting [8], 94 % of control.

Consider `COc1cc2c3c(c1)-c1nc4ccccc4cc1CN3CCC2`, for which the T/C is 111 % of control (dose: 25.0 mg/kg/injection, schedule: Q04DX003 (ip), vehicle: alcohol); 104 % of control (dose: 50.0 mg/kg/injection, schedule: Q04DX003 (ip), vehicle: alcohol); 106 % of control (dose: 100.0 mg/kg/injection, schedule: Q04DX003 (ip), vehicle: alcohol); 98 % of control (dose: 200.0 mg/kg/injection, schedule: Q04DX003 (ip), vehicle: alcohol).

For `CC(=O)c1ccc(Oc2ccc(/C(C)=N\N=C(N)N)cc2)cc1`, the T/C is, setting by setting: under setting [3], 95 % of control; under setting [4], 92 % of control.

As for `CCOc1c(Br)cc(Br)cc1/C=N/NS(=O)(=O)c1ccc(C)cc1`, the T/C is, setting by setting: (dose: 12.5 mg/kg/injection, schedule: Q04DX003 (ip), vehicle: Klucel (hydroxypropylcellulose) (HPC)) 102 % of control; under setting [10], 91 % of control; (dose: 25.0 mg/kg/injection, schedule: Q04DX003 (ip), vehicle: Klucel (hydroxypropylcellulose) (HPC)) 107 % of control; under setting [7], 97 % of control; (dose: 50.0 mg/kg/injection, schedule: Q04DX003 (ip), vehicle: Klucel (hydroxypropylcellulose) (HPC)) 104 % of control; (dose: 170.0 mg/kg/injection, schedule: Q04DX003 (ip), vehicle: Klucel (hydroxypropylcellulose) (HPC)) 97 % of control.

For the compound `NC(=O)NNc1ccc([N+](=O)[O-])cc1[N+](=O)[O-]`, the T/C reads like this: under setting [3], 95 % of control; under setting [4], 97 % of control; (dose: 50.0 mg/kg/injection, schedule: Q01DX009 (ip), vehicle: saline with Tween-80) 97 % of control.

For the compound `CN(C)N=Nc1ccccc1`, the T/C is, setting by setting: (dose: 6.25 mg/kg/injection, schedule: Q01DX009 (ip), vehicle: Klucel (hydroxypropylcellulose) (HPC)) 120 % of control; under setting [9], 112 % of control and 123 % of control; under setting [10], 117 % of control.
